By IC50 is commonly meant the midpoint of a concentration-inhibition curve. A high value points to lower potency.

From ChEMBL document CHEMBL3425471, “Design, synthesis and biological evaluation of novel pyrazoline-containing derivatives as potential tubulin assembling inhibitors” (Eur J Med Chem, 2015) come the findings set out here.

For one experiment, the system named is HepG2. The experiment in a line: cells. Particulars: Homo sapiens, HepG2, 24 h.
Another experiment concerns the target Tubulin (Bos taurus, UniProt Q6B856+Q862L2+Q862F3). The experiment in a line: Inhibition of bovine brain tubulin polymerization after 20 mins by turbidimetric analysis.
A further experiment deals with A549. The experiment can be described thus: cells. Particulars: Homo sapiens, A549, 24 h.
The test system of another experiment is MCF7. The experiment can be described thus: cells. Particulars: Homo sapiens, MCF7, 24 h.

Description for A549: Antiproliferative activity against human A549 cells assessed as reduction in cell viability after 24 hrs by MTT assay
Description for HepG2: Antiproliferative activity against human HepG2 cells assessed as reduction in cell viability after 24 hrs by MTT assay
Description for MCF7: Antiproliferative activity against human MCF7 cells assessed as reduction in cell viability after 24 hrs by MTT assay

Take `COc1cc(C(=O)N2N=C(c3cccc(C)c3)CC2c2ccc3c(c2)OCO3)cc(OC)c1OC` (stereo not given): the IC50 in the experiment on HepG2 was determined as 5.17 µM; on Tubulin, 7.08 µM; in the experiment with A549 it was 5.08 µM; in the experiment with MCF7, 7.34 µM.

For the compound `Cc1ccc(C2=NN(C(=O)c3ccc(Br)cc3)C(c3ccc4c(c3)OCO4)C2)cc1` (stereo not given), the IC50 is above 10 µM in the experiment on HepG2, above 40 µM at Tubulin, above 10 µM in the experiment on A549 and above 10 µM in the experiment on MCF7.

Take `COc1cc(C(=O)N2N=C(c3cc(OC)c(OC)c(OC)c3)CC2c2ccc3c(c2)OCO3)cc(OC)c1OC` (stereo not given): the 50% inhibitory concentration (IC50) in the experiment on HepG2 amounted to 3.15 µM; on Tubulin, 11.37 µM; in the experiment on A549, 2.23 µM; with MCF7 it was 3.26 µM.

Turning to `CCOc1ccc(C2=NN(C(=O)c3cc(OC)c(OC)c(OC)c3)C(c3ccc4c(c3)OCO4)C2)cc1` (stereo not given), the IC50 is 0.07 µM in the experiment with HepG2, 2.19 µM against Tubulin, 0.09 µM with A549 and 0.17 µM with MCF7.

As for `COc1ccc(C2=NN(C(=O)c3cccc(OC)c3)C(c3ccc4c(c3)OCO4)C2)cc1` (stereo not given), the IC50 was found to be 6.25 µM in the experiment on HepG2, 34.77 µM against Tubulin, 6.17 µM with A549 and 8.22 µM in the experiment on MCF7.

`COc1ccc(C2=NN(C(=O)c3ccc(Br)cc3)C(c3ccc4c(c3)OCO4)C2)cc1` (stereo not given): the IC50 is above 10 µM in the experiment on HepG2, above 40 µM against Tubulin, above 10 µM with A549 and above 10 µM with MCF7.

Turning to `COc1cc(C(=O)N2N=C(c3ccc(C)cc3)CC2c2ccc3c(c2)OCO3)cc(OC)c1OC` (stereo not given), the IC50 with HepG2 stood at 2.91 µM; against Tubulin, 10.11 µM; in the experiment on A549 it was 1.14 µM; in the experiment with MCF7, 2.35 µM.

For `COc1cc(C2=NN(C(=O)c3ccc(Cl)cc3)C(c3ccc4c(c3)OCO4)C2)cc(OC)c1OC` (stereo not given), the IC50 amounted to 2.14 µM with HepG2, 21.73 µM against Tubulin, 4.26 µM in the experiment with A549 and 4.77 µM in the experiment with MCF7.

For `O=C(c1ccc(Br)cc1)N1N=C(c2ccc(Br)cc2)CC1c1ccc2c(c1)OCO2` (stereo not given), the IC50 in the experiment on HepG2 was above 10 µM; against Tubulin, above 40 µM; in the experiment on A549, above 10 µM; in the experiment with MCF7, above 10 µM.

For `COc1cc(C2=NN(C(=O)c3ccc(F)cc3)C(c3ccc4c(c3)OCO4)C2)cc(OC)c1OC` (stereo not given), the IC50 is 1.06 µM in the experiment on HepG2, 2.09 µM against Tubulin, 0.78 µM in the experiment with A549 and 0.22 µM in the experiment with MCF7.

As to `COc1ccc(/C=C\c2cc(OC)c(OC)c(OC)c2)cc1O` [COMBRETASTATIN A4], the IC50 stood at 0.17 µM with HepG2 and 0.14 µM in the experiment with A549.

Turning to `O=C(c1ccc(Br)cc1)N1N=C(c2ccc(F)cc2)CC1c1ccc2c(c1)OCO2` (stereo not given), the IC50 is above 10 µM in the experiment on HepG2, above 40 µM against Tubulin, 2.45 µM in the experiment on A549 and 5.11 µM in the experiment with MCF7.

As to `COc1cc(C(=O)N2N=C(c3ccc(Br)cc3)CC2c2ccc3c(c2)OCO3)cc(OC)c1OC` (stereo not given), the IC50 with HepG2 was found to be 5.25 µM; at Tubulin it was 19.45 µM; with A549, 4.21 µM; in the experiment with MCF7 it was 6.37 µM.

As to `COc1cc(C(=O)N2N=C(c3cccc(Cl)c3)CC2c2ccc3c(c2)OCO3)cc(OC)c1OC` (stereo not given), the IC50 in the experiment with HepG2 was 7.15 µM; at Tubulin it was above 40 µM; with A549 it was 7.11 µM; in the experiment on MCF7, 9.23 µM.

`COc1ccc(C2=NN(C(=O)c3ccc(F)cc3)C(c3ccc4c(c3)OCO4)C2)cc1` (stereo not given): the IC50 in the experiment on HepG2 was found to be 1.86 µM; on Tubulin, 7.69 µM; with A549 it was 1.08 µM; in the experiment with MCF7, 1.77 µM.

Regarding `Cc1cccc(C2=NN(C(=O)c3ccc(Br)cc3)C(c3ccc4c(c3)OCO4)C2)c1` (stereo not given), the IC50 in the experiment on HepG2 was above 10 µM; at Tubulin, above 40 µM; in the experiment on A549 it was above 10 µM; in the experiment on MCF7 it was above 10 µM.

With `COc1cccc(C2=NN(C(=O)c3cc(OC)c(OC)c(OC)c3)C(c3ccc4c(c3)OCO4)C2)c1` (stereo not given), the IC50 with HepG2 is 0.07 µM; against Tubulin, 1.91 µM; in the experiment with A549, 0.09 µM; in the experiment with MCF7, 0.06 µM.

As for `COc1ccccc1C1=NN(C(=O)c2cc(OC)c(OC)c(OC)c2)C(c2ccc3c(c2)OCO3)C1` (stereo not given), the IC50 in the experiment on HepG2 is 0.12 µM; on Tubulin, 2.35 µM; with A549, 0.11 µM; in the experiment with MCF7, 0.21 µM.

`COc1cc(C(=O)N2N=C(c3ccc(F)cc3)CC2c2ccc3c(c2)OCO3)cc(OC)c1OC` (stereo not given): the IC50 came out at 0.25 µM in the experiment on HepG2, 7.89 µM against Tubulin, 0.76 µM in the experiment on A549 and 0.32 µM in the experiment with MCF7.

Turning to `COc1ccc(C2=NN(C(=O)c3ccc(OC)c(OC)c3)C(c3ccc4c(c3)OCO4)C2)cc1` (stereo not given), the IC50 came out at 3.77 µM in the experiment with HepG2, 15.73 µM against Tubulin, 2.73 µM in the experiment with A549 and 3.56 µM in the experiment with MCF7.

Regarding `CCOc1ccc(C2=NN(C(=O)c3ccc(Br)cc3)C(c3ccc4c(c3)OCO4)C2)cc1` (stereo not given), the IC50 in the experiment on HepG2 was above 10 µM; on Tubulin it was above 40 µM; with A549 it was above 10 µM; in the experiment with MCF7, above 10 µM.

`COc1ccc(C2=NN(C(=O)c3cc(OC)c(OC)c(OC)c3)C(c3ccc4c(c3)OCO4)C2)cc1OC` (stereo not given): the IC50 with HepG2 was determined as 0.06 µM; on Tubulin it was 2.13 µM; in the experiment with A549, 0.08 µM; in the experiment on MCF7, 0.07 µM.

For `COc1ccccc1C1=NN(C(=O)c2ccc(Br)cc2)C(c2ccc3c(c2)OCO3)C1` (stereo not given), the half-inhibitory concentration (IC50) in the experiment with HepG2 is above 10 µM; on Tubulin it was above 40 µM; in the experiment on A549 it was above 10 µM; in the experiment on MCF7, above 10 µM.

For the compound `COc1ccc(C2=NN(C(=O)c3ccc(Br)cc3)C(c3ccc4c(c3)OCO4)C2)cc1OC` (stereo not given), the IC50 came to 6.26 µM in the experiment with HepG2, 22.06 µM against Tubulin, 3.19 µM in the experiment on A549 and 4.46 µM in the experiment with MCF7.

For `COc1ccc(C2=NN(C(=O)c3ccccc3)C(c3ccc4c(c3)OCO4)C2)cc1` (stereo not given), the IC50 came to 6.25 µM with HepG2, 35.45 µM against Tubulin, 5.21 µM in the experiment with A549 and 5.37 µM in the experiment with MCF7.

With `COc1cccc(C2=NN(C(=O)c3ccc(Br)cc3)C(c3ccc4c(c3)OCO4)C2)c1` (stereo not given), the IC50 is above 10 µM with HepG2, above 40 µM against Tubulin, above 10 µM in the experiment on A549 and above 10 µM in the experiment on MCF7.

Take `O=C(c1ccc(Br)cc1)N1N=C(c2ccc(Cl)cc2)CC1c1ccc2c(c1)OCO2` (stereo not given): the IC50 in the experiment with HepG2 is above 10 µM; at Tubulin it was above 40 µM; in the experiment with A549 it was above 10 µM; in the experiment with MCF7, above 10 µM.

Turning to `COc1cc(C(=O)N2N=C(c3ccccc3)CC2c2ccc3c(c2)OCO3)cc(OC)c1OC` (stereo not given), the 50% inhibitory concentration (IC50) was determined as 2.24 µM with HepG2, 15.63 µM against Tubulin, 2.19 µM in the experiment on A549 and 3.38 µM in the experiment with MCF7.

In the case of `COc1ccc(C(=O)N2N=C(c3ccc(OC)cc3)CC2c2ccc3c(c2)OCO3)cc1` (stereo not given), the IC50 in the experiment on HepG2 amounted to 5.05 µM; at Tubulin, 25.79 µM; with A549, 4.08 µM; in the experiment on MCF7, 6.41 µM.

For `O=C(c1ccc(Br)cc1)N1N=C(c2ccccc2)CC1c1ccc2c(c1)OCO2` (stereo not given), the IC50 is above 10 µM in the experiment with HepG2, above 40 µM at Tubulin, above 10 µM in the experiment with A549 and above 10 µM with MCF7.

`COc1cc(C2=NN(C(=O)c3ccc(Br)cc3)C(c3ccc4c(c3)OCO4)C2)cc(OC)c1OC` (stereo not given): the IC50 with HepG2 amounted to 6.22 µM; on Tubulin it was 25.06 µM; in the experiment with A549, 4.16 µM; with MCF7, 5.26 µM.

Turning to `COc1cc(C(=O)N2N=C(c3ccc(Cl)cc3)CC2c2ccc3c(c2)OCO3)cc(OC)c1OC` (stereo not given), the concentration for half-maximal inhibition (IC50) in the experiment on HepG2 was 3.16 µM; against Tubulin it was 18.02 µM; with A549 it was 3.08 µM; in the experiment with MCF7 it was 4.26 µM.

Regarding `COc1ccc(C2=NN(C(=O)c3ccc(Cl)cc3)C(c3ccc4c(c3)OCO4)C2)cc1` (stereo not given), the IC50 with HepG2 is 8.38 µM; at Tubulin, above 40 µM; in the experiment on A549, 7.14 µM; in the experiment on MCF7, 8.66 µM.
